Patent publication US9937151B2, “Carbapenem antibacterials with gram-negative activity” (priority 2010, dated 2018)

System: G(−) bacterial strains
Experiment: Dilution antimicrobial susceptibility tests (MIC, NCCLS agar dilution / broth dilution)
Type: cell-based, Gram-negative organisms
Conditions: unit assumed
Outline: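 Agar dilution on Mueller-Hinton agar at 10^4 CFU/spot and broth dilution at 5×10^5 CFU/well, per NCCLS M7-A5. Streptococci tested on Mueller-Hinton agar with 5% sheep blood. MIC taken as minimum inhibitory concentration; ATCC control strains run alongside.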

[1] = strain #1 Acinetobacter calcoaceticus
[2] = strain #2 Acinetobacter baumannii, Cf-R, Ci-R
[3] = strain #3 Acinetobacter baumannii, Cf-R, Ci-R, Mp-I
[4] = strain #4 Acinetobacter baumannii, Cf-R, Imp-I, CBPase
[5] = strain #7 Enterobacter aerogenes
[6] = strain #8 Enterobacter cloacae, Cf-R, B+
[7] = strain #9 Enterobacter cloacae, Cf-R
[8] = strain #10 Escherichia coli, Ci-R
[9] = strain #11 Escherichia coli, Ci-R, AmpC
[10] = strain #15 Klebsiella pneumoniae
[11] = strain #16 Moraxella catarrhalis
[12] = strain #21 Providencia rettgeri
[13] = strain #22 Salmonella typhimurium
[14] = strain #25 Shigella dysenteriae
[15] = strain #28 Stenotrophomonas maltophilia
[16] = strain #29 Pseudomonas aeruginosa
[17] = strain #30 Pseudomonas aeruginosa
[18] = strain #31 Pseudomonas aeruginosa, Ofx-R
[19] = strain #32 Pseudomonas aeruginosa, Cf-R
[20] = strain #33 Pseudomonas aeruginosa, Ci-R
[21] = strain #34 Pseudomonas aeruginosa, Gen-R
[22] = strain #35 Pseudomonas aeruginosa, Ip-R
[23] = strain #36 Pseudomonas aeruginosa, Cf-R, Ci-R, Mp-R

Measured: MIC

CC(=O)NC(=N)N[C@H]1CCN(CC2=C(C(=O)O)N3C(=O)C([C@@H](C)O)C3[C@H]2C)C1 (stereo partly drawn) [Compound 111]
≤ 0.008 µg/mL: [11]
1 µg/mL: [1] | [6] | [7] | strain #14 Klebsiella oxytoca | [10] | strain #23 Serratia marcescens | [18]
> 32 µg/mL: [23]
2 µg/mL: [5] | strain #18 Morganella Morganii | strain #19 Proteus vulgaris | [12] | strain #24 Serratia marcescens
4 µg/mL: [2] | [3] | [4] | strain #17 Morganella Morganii | [16] | [17] | [19] | [21]
8 µg/mL: [20] | [22]
0.5 µg/mL: strain #5 Citrobacter diversus | strain #6 Citrobacter freundii | [8] | [9] | strain #12 Escherichia coli | strain #13 Escherichia coli | strain #20 Proteus mirabilis | [13] | [14] | strain #26 Shigella sonnei | strain #27 Shigella flexneri | [15]

C[C@@H](O)C1C(=O)N2C(C(=O)O)=C(CN3CC[C@@H](C(N)=O)C3)[C@H](C)C12 (stereo partly drawn) [Compound 115]
0.5 µg/mL: [1] | [10] | strain #23 Serratia marcescens
2 µg/mL: [3] | strain #17 Morganella Morganii | strain #18 Morganella Morganii
> 32 µg/mL: [23]
≤ 0.008 µg/mL: [11]
0.25 µg/mL: strain #5 Citrobacter diversus | strain #6 Citrobacter freundii | [7] | [8] | [9] | strain #12 Escherichia coli | strain #13 Escherichia coli | strain #14 Klebsiella oxytoca | strain #20 Proteus mirabilis | [13] | [14] | strain #26 Shigella sonnei | strain #27 Shigella flexneri | [15]
1 µg/mL: [2] | [4] | [5] | strain #19 Proteus vulgaris | [12] | strain #24 Serratia marcescens | [18]
0.13 µg/mL: [6]
4 µg/mL: [16] | [17] | [19]
8 µg/mL: [20] | [21] | [22]

C[C@@H](O)C1C(=O)N2C(C(=O)O)=C(CN3CC[C@H](C(=O)N(C)C)C3)[C@H](C)C12 (stereo partly drawn) [Compound 120]
4 µg/mL: [1] | [4] | strain #18 Morganella Morganii | strain #19 Proteus vulgaris | [18]
0.5 µg/mL: strain #5 Citrobacter diversus | strain #6 Citrobacter freundii | [6] | [8] | [9] | strain #12 Escherichia coli | strain #13 Escherichia coli | strain #20 Proteus mirabilis | [13] | [14] | strain #26 Shigella sonnei | strain #27 Shigella flexneri
16 µg/mL: [3] | [16] | [17] | [19] | [20] | [21]
2 µg/mL: [5] | [12] | strain #24 Serratia marcescens
> 32 µg/mL: [22] | [23]
8 µg/mL: [2] | strain #17 Morganella Morganii
1 µg/mL: [7] | strain #14 Klebsiella oxytoca | [10] | strain #23 Serratia marcescens | [15]
0.016 µg/mL: [11]

CNC(=O)[C@H]1CCN(CC2=C(C(=O)O)N3C(=O)C([C@@H](C)O)C3[C@H]2C)C1 (stereo partly drawn) [Compound 127]
4 µg/mL: [3] | strain #17 Morganella Morganii | strain #18 Morganella Morganii
≤ 0.008 µg/mL: [11]
1 µg/mL: [1] | [2] | [7] | strain #14 Klebsiella oxytoca | [10] | strain #23 Serratia marcescens | [14]
2 µg/mL: [4] | [5] | strain #19 Proteus vulgaris | [12] | strain #24 Serratia marcescens | [18]
8 µg/mL: [16] | [17] | [19] | [20] | [21]
0.5 µg/mL: strain #5 Citrobacter diversus | strain #6 Citrobacter freundii | [6] | [8] | [9] | strain #12 Escherichia coli | strain #13 Escherichia coli | strain #20 Proteus mirabilis | [13] | strain #26 Shigella sonnei | strain #27 Shigella flexneri | [15]
16 µg/mL: [22]
> 32 µg/mL: [23]

C[C@@H](O)C1C(=O)N2C(C(=O)O)=C(CN3CC[C@H](C(=O)NS(C)(=O)=O)C3)[C@H](C)C12 (stereo partly drawn) [Compound 132]
0.13 µg/mL: strain #27 Shigella flexneri
32 µg/mL: [4]
0.016 µg/mL: [11]
0.25 µg/mL: strain #5 Citrobacter diversus | strain #6 Citrobacter freundii | [6] | [8] | [9] | strain #12 Escherichia coli | strain #13 Escherichia coli | strain #20 Proteus mirabilis | [13] | [14] | strain #26 Shigella sonnei
4 µg/mL: [1] | strain #17 Morganella Morganii | strain #18 Morganella Morganii
16 µg/mL: [2] | [3]
1 µg/mL: [5] | strain #19 Proteus vulgaris | [12] | strain #24 Serratia marcescens
0.5 µg/mL: [7] | strain #14 Klebsiella oxytoca | [10] | strain #23 Serratia marcescens
2 µg/mL: [15]

C[C@@H](O)C1C(=O)N2C(C(=O)O)=C(CN3CC[C@H](C(=O)NCC(N)=O)C3)[C@H](C)C12 (stereo partly drawn) [Compound 137]
4 µg/mL: strain #17 Morganella Morganii | strain #18 Morganella Morganii
1 µg/mL: [1] | strain #6 Citrobacter freundii | [7] | strain #13 Escherichia coli | strain #14 Klebsiella oxytoca | [10] | [13] | [14] | strain #26 Shigella sonnei
8 µg/mL: [3]
2 µg/mL: [2] | [4] | [5] | strain #19 Proteus vulgaris | [12] | strain #23 Serratia marcescens | strain #24 Serratia marcescens
≤ 0.008 µg/mL: [11]
0.5 µg/mL: strain #5 Citrobacter diversus | [6] | [8] | [9] | strain #12 Escherichia coli | strain #20 Proteus mirabilis | strain #27 Shigella flexneri | [15]

C[C@@H](O)C1C(=O)N2C(C(=O)O)=C(CN3CC[C@H](C(=O)NC(=N)N)C3)[C@H](C)C12 (stereo partly drawn) [Compound 143]
16 µg/mL: strain #17 Morganella Morganii
4 µg/mL: [5] | [15]
> 32 µg/mL: [4]
32 µg/mL: [2] | [3]
0.063 µg/mL: [11]
2 µg/mL: [10] | [12] | strain #24 Serratia marcescens
1 µg/mL: strain #6 Citrobacter freundii | [7] | strain #14 Klebsiella oxytoca | strain #20 Proteus mirabilis | strain #23 Serratia marcescens | [14] | strain #26 Shigella sonnei
8 µg/mL: [1] | strain #18 Morganella Morganii | strain #19 Proteus vulgaris
0.5 µg/mL: strain #5 Citrobacter diversus | [6] | [8] | [9] | strain #12 Escherichia coli | strain #13 Escherichia coli | [13] | strain #27 Shigella flexneri

C[C@@H](O)C1C(=O)N2C(C(=O)O)=C(CN3CC[C@H](O)C3)[C@H](C)C12 (stereo partly drawn) [Compound 146]
0.016 µg/mL: [11]
4 µg/mL: [4] | strain #19 Proteus vulgaris
2 µg/mL: [3] | [5] | [12] | strain #23 Serratia marcescens | strain #24 Serratia marcescens
8 µg/mL: strain #17 Morganella Morganii | strain #18 Morganella Morganii
0.5 µg/mL: strain #5 Citrobacter diversus | strain #6 Citrobacter freundii | strain #12 Escherichia coli | strain #13 Escherichia coli | strain #20 Proteus mirabilis | [13] | [14] | strain #26 Shigella sonnei | [15]
1 µg/mL: [1] | [2] | [7] | strain #14 Klebsiella oxytoca | [10]
0.25 µg/mL: [6] | [8] | [9] | strain #27 Shigella flexneri

C[C@@H](O)C1C(=O)N2C(C(=O)O)=C(CN3CC[C@@H](N)C3)[C@H](C)C12 (stereo partly drawn) [Compound 151]
2 µg/mL: [3] | [5] | [12]
4 µg/mL: strain #17 Morganella Morganii | strain #18 Morganella Morganii
0.25 µg/mL: [1] | strain #5 Citrobacter diversus | [6] | [8] | [9] | strain #12 Escherichia coli | strain #27 Shigella flexneri | [15]
≤ 0.008 µg/mL: [11]
0.5 µg/mL: [2] | strain #6 Citrobacter freundii | [7] | strain #13 Escherichia coli | strain #14 Klebsiella oxytoca | [10] | strain #20 Proteus mirabilis | [13] | [14] | strain #26 Shigella sonnei
1 µg/mL: [4] | strain #19 Proteus vulgaris | strain #23 Serratia marcescens | strain #24 Serratia marcescens

C[C@@H](O)C1C(=O)N2C(C(=O)O)=C(CN3CC[C@@H](NC(=N)N)C3)[C@H](C)C12 (stereo partly drawn) [Compound 156]
0.5 µg/mL: [1] | strain #5 Citrobacter diversus | strain #6 Citrobacter freundii | [6] | [8] | [9] | strain #12 Escherichia coli | strain #13 Escherichia coli | strain #20 Proteus mirabilis | strain #26 Shigella sonnei | strain #27 Shigella flexneri | [15]
1 µg/mL: [7] | strain #14 Klebsiella oxytoca | [10] | [13] | [14]
2 µg/mL: [2] | [4] | [5] | strain #19 Proteus vulgaris | [12] | strain #23 Serratia marcescens | strain #24 Serratia marcescens
≤ 0.008 µg/mL: [11]
4 µg/mL: [3] | strain #17 Morganella Morganii | strain #18 Morganella Morganii
